# Laboratory results reported in ChEMBL document CHEMBL4431295 (Medchemcomm, 2016).
# pIC50: −log10 of the molar value. Calls of active or inactive are those of the source. No cut-off for these calls is given here.
# Legend:
# SK-N-SH [1] = assay: Antiproliferative activity against human SK-N-SH cells after 72 hrs by MTT assay; format: functional, cell-based
# MGC-803 = assay: Antiproliferative activity against human MGC803 cells after 72 hrs by MTT assay; format: functional, cell-based; settings: MGC-803, 72 h
# HepG2 = assay: Antiproliferative activity against human HepG2 cells after 72 hrs by MTT assay; format: functional, cell-based; settings: HepG2, 72 h
# SK-N-SH [2] = assay: Induction of apoptosis in human SK-N-SH cells assessed as chromatin shrinkage at 5 to 10 uM after 24 hrs by Hoechst 33258 staining based fluorescence microscopic analysis; format: functional, cell-based
# SK-N-SH [3] = assay: Induction of apoptosis in human SK-N-SH cells assessed as live cells at 5 uM by Annexin V-FITC/propidium iodide staining based flow cytometry (reference value: 90.9%); format: functional
# SK-N-SH [4] = assay: Cell cycle arrest in human SK-N-SH cells assessed as G1/G0 phase accumulation at 10 uM after 24 hrs by FITC/propidium iodide staining based flow cytometry (reference value: 57.72%); format: functional
# SK-N-SH [5] = assay: Cell cycle arrest in human SK-N-SH cells assessed as S phase accumulation at 2.5 uM after 24 hrs by FITC/propidium iodide staining based flow cytometry (reference value: 37.4%); format: functional
# SK-N-SH [6] = assay: Induction of apoptosis in human SK-N-SH cells assessed as formation of apoptotic bodies at 5 to 10 uM after 24 hrs by Hoechst 33258 staining based fluorescence microscopic analysis; format: functional, cell-based
# SK-N-SH [7] = assay: Induction of apoptosis in human SK-N-SH cells assessed as necrotic cells at 2.5 uM by Annexin V-FITC/propidium iodide staining based flow cytometry (reference value: 0.3%); format: functional
# SK-N-SH [8] = assay: Induction of apoptosis in human SK-N-SH cells assessed as late apoptotic cells at 10 uM by Annexin V-FITC/propidium iodide staining based flow cytometry (reference value: 1.7%); format: functional
# SK-N-SH [9] = assay: Cell cycle arrest in human SK-N-SH cells assessed as G1/G0 phase accumulation after 24 hrs by FITC/propidium iodide staining based flow cytometry; format: functional
# SK-N-SH [10] = assay: Induction of apoptosis in human SK-N-SH cells assessed as necrotic cells at 10 uM by Annexin V-FITC/propidium iodide staining based flow cytometry (reference value: 0.3%); format: functional
# SK-N-SH [11] = assay: Cell cycle arrest in human SK-N-SH cells assessed as G2/M phase accumulation at 10 uM after 24 hrs by FITC/propidium iodide staining based flow cytometry (reference value: 6.03%); format: functional
# SK-N-SH [12] = assay: Induction of apoptosis in human SK-N-SH cells assessed as increase in p53 expression at 5 to 10 uM after 24 hrs by Western blot analysis; format: functional, cell-based
# SK-N-SH [13] = assay: Induction of apoptosis in human SK-N-SH cells assessed as necrotic cells at 1.25 uM by Annexin V-FITC/propidium iodide staining based flow cytometry (reference value: 0.3%); format: functional
# SK-N-SH [14] = assay: Induction of apoptosis in human SK-N-SH cells assessed as late apoptotic cells at 5 uM by Annexin V-FITC/propidium iodide staining based flow cytometry (reference value: 1.7%); format: functional
# SK-N-SH [15] = assay: Induction of apoptosis in human SK-N-SH cells assessed as early apoptotic cells at 10 uM by Annexin V-FITC/propidium iodide staining based flow cytometry (reference value: 7.1%); format: functional
# SK-N-SH [16] = assay: Induction of apoptosis in human SK-N-SH cells assessed as late apoptotic cells at 2.5 uM by Annexin V-FITC/propidium iodide staining based flow cytometry (reference value: 1.7%); format: functional
# SK-N-SH [17] = assay: Induction of apoptosis in human SK-N-SH cells assessed as decrease in pro-caspase-3 expression at 5 to 10 uM after 24 hrs by Western blot analysis; format: functional, cell-based
# SK-N-SH [18] = assay: Cell cycle arrest in human SK-N-SH cells assessed as G2/M phase accumulation at 5 uM after 24 hrs by FITC/propidium iodide staining based flow cytometry (reference value: 6.03%); format: functional
# SK-N-SH [19] = assay: Cell cycle arrest in human SK-N-SH cells assessed as G2/M phase accumulation at 2.5 uM after 24 hrs by FITC/propidium iodide staining based flow cytometry (reference value: 6.03%); format: functional
# SK-N-SH [20] = assay: Induction of apoptosis in human SK-N-SH cells assessed as early apoptotic cells at 2.5 uM by Annexin V-FITC/propidium iodide staining based flow cytometry (reference value: 7.1%); format: functional
# SK-N-SH [21] = assay: Cell cycle arrest in human SK-N-SH cells assessed as S phase accumulation at 10 uM after 24 hrs by FITC/propidium iodide staining based flow cytometry (reference value: 37.4%); format: functional
# SK-N-SH [22] = assay: Induction of apoptosis in human SK-N-SH cells assessed as early apoptotic cells at 5 uM by Annexin V-FITC/propidium iodide staining based flow cytometry (reference value: 7.1%); format: functional
# SK-N-SH [23] = assay: Induction of apoptosis in human SK-N-SH cells assessed as cell rounding at 5 to 10 uM after 24 hrs by Hoechst 33258 staining based fluorescence microscopic analysis; format: functional
# SK-N-SH [24] = assay: Induction of apoptosis in human SK-N-SH cells assessed as necrotic cells at 5 uM by Annexin V-FITC/propidium iodide staining based flow cytometry (reference value: 0.3%); format: functional
# SK-N-SH [25] = assay: Induction of apoptosis in human SK-N-SH cells assessed as late apoptotic cells at 20 uM by Annexin V-FITC/propidium iodide staining based flow cytometry (reference value: 1.7%); format: functional
# SK-N-SH [26] = assay: Induction of apoptosis in human SK-N-SH cells assessed as live cells at 2.5 uM by Annexin V-FITC/propidium iodide staining based flow cytometry (reference value: 90.9%); format: functional
# SK-N-SH [27] = assay: Induction of apoptosis in human SK-N-SH cells assessed as early apoptotic cells at 1.25 uM by Annexin V-FITC/propidium iodide staining based flow cytometry (reference value: 7.1%); format: functional
# SK-N-SH [28] = assay: Cell cycle arrest in human SK-N-SH cells assessed as G1/G0 phase accumulation at 5 uM after 24 hrs by FITC/propidium iodide staining based flow cytometry (reference value: 57.72%); format: functional
# GES1 = assay: Cytotoxicity against human GES-1 cells assessed as cell growth inhibition after 72 hrs by MTT assay; format: cell-based; settings: GES1, 72 h
# SK-N-SH [29] = assay: Cell cycle arrest in human SK-N-SH cells assessed as G1/G0 phase accumulation at 2.5 uM after 24 hrs by FITC/propidium iodide staining based flow cytometry (reference value: 57.72%); format: functional
# SK-N-SH [30] = assay: Induction of apoptosis in human SK-N-SH cells assessed as live cells at 10 uM by Annexin V-FITC/propidium iodide staining based flow cytometry (reference value: 90.9%); format: functional
# SK-N-SH [31] = assay: Induction of apoptosis in human SK-N-SH cells assessed as live cells at 20 uM by Annexin V-FITC/propidium iodide staining based flow cytometry (reference value: 90.9%); format: functional
# SK-N-SH [32] = assay: Induction of apoptosis in human SK-N-SH cells assessed as late apoptotic cells at 1.25 uM by Annexin V-FITC/propidium iodide staining based flow cytometry (reference value: 1.7%); format: functional
# SK-N-SH [33] = assay: Induction of apoptosis in human SK-N-SH cells assessed as increase in caspase-3 expression at 5 to 10 uM after 24 hrs by Western blot analysis; format: functional, cell-based
# SK-N-SH [34] = assay: Induction of apoptosis in human SK-N-SH cells assessed as necrotic cells at 20 uM by Annexin V-FITC/propidium iodide staining based flow cytometry (reference value: 0.3%); format: functional
# SK-N-SH [35] = assay: Induction of apoptosis in human SK-N-SH cells assessed as early apoptotic cells at 20 uM by Annexin V-FITC/propidium iodide staining based flow cytometry (reference value: 7.1%); format: functional
# SK-N-SH [36] = assay: Induction of apoptosis in human SK-N-SH cells assessed as live cells at 1.25 uM by Annexin V-FITC/propidium iodide staining based flow cytometry (reference value: 90.9%); format: functional
# SK-N-SH [37] = assay: Cell cycle arrest in human SK-N-SH cells assessed as S phase accumulation at 5 uM after 24 hrs by FITC/propidium iodide staining based flow cytometry (reference value: 37.4%); format: functional
smiles,measurement,setting,value
O=C(/C=C/c1ccco1)c1ccc(NCc2cn(Cc3ccccc3)nn2)cc1,pIC50,SK-N-SH [1],4.41
same,pIC50,MGC-803,4.43
same,pIC50,HepG2,4.37
O=C(/C=C/c1ccc(F)cc1)c1ccc(NCc2cn(Cc3ccccc3)nn2)cc1,pIC50,SK-N-SH [1],4.37
same,pIC50,MGC-803,4.40
same,pIC50,HepG2,4.41
COc1cccc(Cn2cc(CNc3ccc(C(=O)/C=C/c4cccnc4)cc3)nn2)c1,Activity,SK-N-SH [2],Active
same,Activity,SK-N-SH [3],87.1%
same,Activity,SK-N-SH [4],81.8%
same,Activity,SK-N-SH [5],19.11%
same,Activity,SK-N-SH [6],Active
same,Activity,SK-N-SH [7],0.7%
same,Activity,SK-N-SH [8],18.8%
same,Activity,SK-N-SH [9],Dose-dependent effect
same,Activity,SK-N-SH [10],0.5%
same,Activity,SK-N-SH [11],7.17%
same,Activity,SK-N-SH [12],Active
same,Activity,SK-N-SH [13],0.3%
same,Activity,SK-N-SH [14],2.5%
same,Activity,SK-N-SH [15],31.9%
same,Activity,SK-N-SH [16],2.1%
same,Activity,SK-N-SH [17],Active
same,Activity,SK-N-SH [18],14.2%
same,Activity,SK-N-SH [19],18.71%
same,Activity,SK-N-SH [20],5.8%
same,Activity,SK-N-SH [21],10.34%
same,Activity,SK-N-SH [22],9.6%
same,Activity,SK-N-SH [23],Active
same,Activity,SK-N-SH [24],0.8%
same,Activity,SK-N-SH [25],57.7%
same,Activity,SK-N-SH [26],91.4%
same,Activity,SK-N-SH [27],5.7%
same,Activity,SK-N-SH [28],71.27%
same,pIC50,GES1,4.51
same,Activity,SK-N-SH [29],67.06%
same,Activity,SK-N-SH [30],48.8%
same,Activity,SK-N-SH [31],1%
same,Activity,SK-N-SH [32],1.2%
same,pIC50,SK-N-SH [1],5.82
same,pIC50,MGC-803,5.56
same,Activity,SK-N-SH [33],Active
same,Activity,SK-N-SH [34],1.6%
same,Activity,SK-N-SH [35],39.7%
same,Activity,SK-N-SH [36],92.9%
same,Activity,SK-N-SH [37],15.65%
same,pIC50,HepG2,5.66
COc1cccc(Cn2cc(CNc3ccc(C(=O)/C=C/c4ccc(Cl)cc4)cc3)nn2)c1,pIC50,SK-N-SH [1],4.67
same,pIC50,MGC-803,4.41
same,pIC50,HepG2,4.46
O=C(/C=C/c1ccncc1)c1ccc(OCc2cn(Cc3ccccc3)nn2)cc1,pIC50,SK-N-SH [1],5.13
same,pIC50,MGC-803,4.58
same,pIC50,HepG2,4.94
O=C(/C=C/c1cccs1)c1ccc(NCc2cn(Cc3ccc(Cl)cc3)nn2)cc1,pIC50,SK-N-SH [1],4.51
same,pIC50,MGC-803,4.53
same,pIC50,HepG2,4.41
O=C(/C=C/c1cccnc1)c1ccc(NCc2cn(Cc3ccccc3C(F)(F)F)nn2)cc1,pIC50,GES1,4.26
same,pIC50,SK-N-SH [1],5.14
same,pIC50,MGC-803,5.50
same,pIC50,HepG2,5.16
O=C(/C=C/c1cccc(Cl)c1)c1ccc(OCc2cn(Cc3ccccc3)nn2)cc1,pIC50,SK-N-SH [1],4.71
same,pIC50,MGC-803,< 4.19
same,pIC50,HepG2,4.62
O=C(/C=C/c1cccnc1)c1ccc(NCc2cn(Cc3ccc(Cl)cc3)nn2)cc1,pIC50,SK-N-SH [1],5.36
same,pIC50,MGC-803,5.15
same,pIC50,HepG2,5.03
O=c1[nH]cc(F)c(=O)[nH]1 [FLUOROURACIL],pIC50,GES1,5.14
same,pIC50,SK-N-SH [1],4.99
same,pIC50,MGC-803,5.14
same,pIC50,HepG2,4.99
O=C(/C=C/c1cccnc1)c1ccc(NCc2cn(Cc3ccccc3)nn2)cc1,pIC50,SK-N-SH [1],5.29
same,pIC50,MGC-803,5.46
same,pIC50,HepG2,5.36
O=C(/C=C/c1cc(F)cc(F)c1)c1ccc(NCc2cn(Cc3ccccc3)nn2)cc1,pIC50,SK-N-SH [1],4.56
same,pIC50,MGC-803,4.63
same,pIC50,HepG2,< 4.19
CN1CCN(c2ccc(/C=C/C(=O)c3ccc(OCc4cn(Cc5ccccc5)nn4)cc3)cc2F)CC1,pIC50,SK-N-SH [1],5.19
same,pIC50,MGC-803,4.94
same,pIC50,HepG2,5.26
